According to publication PMC8041284, “Tunable Methacrylamides for Covalent Ligand Directed Release Chemistry” (Journal of the American Chemical Society, 2021):
Where two headings read alike, the source gives them in different places.

Target: BTK (Homo sapiens, UniProt Q06187)
Test: biochemical
[1] = read-out: BTK inhibition (%), 0.75 uM BTK, […] probe 3l, 15 min preincubation

Chain of BTK (Q06187 402-655 limits assumed): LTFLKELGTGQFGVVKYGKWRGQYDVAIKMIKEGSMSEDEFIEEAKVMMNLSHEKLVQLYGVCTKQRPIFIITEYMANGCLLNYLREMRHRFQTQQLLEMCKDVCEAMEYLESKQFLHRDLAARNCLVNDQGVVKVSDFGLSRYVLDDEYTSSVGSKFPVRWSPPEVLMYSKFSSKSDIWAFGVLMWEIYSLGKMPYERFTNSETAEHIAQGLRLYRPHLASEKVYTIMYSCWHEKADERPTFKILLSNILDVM

| SMILES | inhibition at 10 µM (read-out: BTK inhibition (%)) | inhibition at 10 µM [1] |
| --- | --- | --- |
| Cc1ccc2c(c1)[C@]13CCCC[C@@H]1[C@H](C2)N(C)CC3 [PCM-0216574] | 12.8% | – |
| NC(=O)C1CCCc2c1[nH]c1ccc(Cl)cc21 (stereo not shown) [PCM-0095104] | – | -3.4% |
| C[C@H](Nc1ncnc2nc[nH]c12)c1cc2cccc(Cl)c2c(=O)n1-c1ccccc1 [PCM-0095570] | – | 2.1% |
| COc1ccccc1OCC(O)COC(N)=O (stereo not shown) [PCM-0085814] | – | 14.8% |
| O=C(O)CCc1ccc(NCc2cccc(Oc3ccccc3)c2)cc1 [PCM-0065313] | – | -41.4% |
| CCOC(=O)CC(=O)N1CCSC1COc1ccccc1OC (stereo not shown) [PCM-0090669] | – | -8.6% |
| CCCCCOc1ccccc1/C(=C\SC)n1ccnc1 [PCM-0215110] | – | -22.6% |
| CC(C)c1noc(N2CCC(COc3ccc(-c4ccc(S(C)(=O)=O)cc4)nc3)CC2)n1 [PCM-0095313] | – | -14% |
| NC(=O)NCCC[C@H](N)C(=O)O [PCM-0215941] | – | -17.9% |
| NC(=O)/C(=C/n1cnc(-c2cc(C(F)(F)F)cc(C(F)(F)F)c2)n1)c1cncnc1 [PCM-0215821] | – | -10% |
| Cc1noc(NS(=O)(=O)c2ccc(N)cc2)c1C [PCM-0085967] | – | 10.9% |
| NC(=O)c1cc(F)cc2c1C(=O)N(C1CCN(C3CCC(F)(F)CC3)CC1)C2 [PCM-0215809] | – | 4.6% |
| CC(C)(Cc1ccc2ccccc2c1)NC[C@@H](O)COc1cccc(Cl)c1C#N [PCM-0095749] | – | -11.7% |
| C[C@@H](C(=O)Nc1ccc(Cl)cc1)C1CCC(c2ccnc3ccc(F)cc23)CC1 (stereo partly shown) [PCM-0216246] | – | 27% |
| COC(=O)[C@H](CC(C)C)NC(=O)c1ccc(NC[C@@H](N)CS)cc1-c1cccc2ccccc12 [PCM-0215717] | – | -79.5% |
| CC(C)c1nc(CN(C)C(=O)N[C@H](C(=O)N[C@@H](Cc2ccccc2)C[C@H](O)[C@H](Cc2ccccc2)NC(=O)OCc2cncs2)C(C)C)cs1 [PCM-0214603] | – | -19.5% |
| NC(=O)CC[C@H](N)C(=O)O [PCM-0065292] | – | 17.9% |
| CC(C)(C)NC(=O)[C@H]1CC[C@H]2[C@@H]3CC[C@H]4NC(=O)C=C[C@]4(C)[C@H]3CC[C@]12C [PCM-0214718] | – | 13.2% |
| COc1c(C)c2c(c(O)c1C/C=C(\C)CCC(=O)OCCN1CCOCC1)C(=O)OC2 [PCM-0090398] | – | -15.2% |
| CCOP(=O)(OCC)C(=Cc1cc(C(C)(C)C)c(O)c(C(C)(C)C)c1)P(=O)(OCC)OCC [PCM-0215676] | -11.6% | – |
| COc1ccc(C(=O)C2CCN(CC(=O)N(Cc3nc4c(c(=O)[nH]3)COCC4)CC3CC3)CC2)cc1 [PCM-0215580] | – | -6.9% |
| Nc1nc(N)c2nc(-c3cccc(O)c3)cnc2n1 [PCM-0095537] | – | -35.7% |
| N[C@@H]1CCCN(c2c(/C=C3\SC(=O)NC3=O)cccc2-c2ccccc2)C1 [PCM-0095732] | – | 4.1% |
| COc1cc(OC2CCN(C)CC2)ccc1Nc1ncc2c(n1)n(C1CCCC1)c(=O)n2C [PCM-0095460] | – | -15.2% |
| C[C@@H]1[C@H](O)[C@@H](C)/C=C/C=C/C=C/C=C/C=C/C=C/C=C/[C@H](O[C@@H]2O[C@H](C)[C@@H](O)[C@H](N)[C@@H]2O)C[C@@H]2O[C@](O)(C[C@@H](O)C[C@@H](O)[C@H](O)CC[C@@H](O)C[C@@H](O)CC(=O)O[C@H]1C)C[C@H](O)[C@H]2C(=O)O [PCM-0214634] | – | -3.1% |
| C=CC(=O)Nc1ccc2ncnc(Nc3cccc(Br)c3)c2c1 [PCM-0095572] | – | 106% |

| SMILES | inhibition at 10 µM (read-out: BTK inhibition (%)) | inhibition at 10 µM [1] |
| --- | --- | --- |
| C[C@H]1CC(=O)C[C@@H]2CC[C@H]3[C@@H]4CC[C@H](O)[C@@]4(C)CC[C@@H]3[C@]21C [PCM-0214988] | -20.2% | – |
| Cc1cccc(C)c1NC1=NCCCS1 [PCM-0064906] | -21.8% | – |
| O=C1CCC[C@@H]2[C@H]3CCCN4CCC[C@@H](CN12)[C@@H]34 [PCM-0094866] | – | 11.7% |
| Cc1ccc(NS(=O)(=O)c2ccc3c(c2)C2C=CCC2C(c2ccc(C(=O)O)cc2)N3)cc1C (stereo not shown) [PCM-0215738] | – | 92.7% |
| O=c1c(O)c(-c2ccc(O)cc2O)oc2cc(O)cc(O)c12 [PCM-0065541] | – | 10.1% |
| Nc1cc(C(F)(F)F)c(-c2cc(N3CCOCC3)nc(N3CCOCC3)n2)cn1 [PCM-0095286] | – | -4.1% |
| Cc1ccc(Sc2ccccc2N2CCNCC2)c(C)c1 [PCM-0095609] | – | -6.9% |
| O=C(O)c1ccc2c(c1)C(=O)c1ccccc1C2=O [PCM-0216619] | – | 9.3% |
| O=C(O)CCCc1c[nH]c2ccccc12 [PCM-0094810] | – | -12.5% |
| C[C@@H](CC[C@@]1(O)O[C@H]2C[C@H]3[C@@H]4CC[C@@H]5C[C@@H](O[C@@H]6O[C@H](CO)[C@H](O)[C@H](O)[C@H]6O[C@@H]6O[C@H](CO)[C@@H](O)[C@H](O)[C@H]6O)CC[C@]5(C)[C@H]4CC[C@]3(C)[C@H]2[C@@H]1C)CO[C@@H]1O[C@H](CO)[C@@H](O)[C@H](O)[C@H]1O [PCM-0216516] | – | -3.9% |
| C=C(CCC=C(C)C)[C@H]1CC[C@]2(C)[C@@H]1[C@H](O)C[C@@H]1[C@@]3(C)CC[C@H](O[C@@H]4O[C@H](CO)[C@@H](O)[C@H](O)[C@H]4O[C@@H]4O[C@H](CO)[C@@H](O)[C@H](O)[C@H]4O)C(C)(C)[C@@H]3CC[C@]12C [PCM-0216466] | – | 6.2% |
| Cc1ccc(C)c(OCCCC(C)(C)C(=O)O)c1 [PCM-0085876] | – | -29.6% |
| CCS(=O)(=O)c1cccc(-c2cc(C(=O)NC3CCN(C)CC3)c(C)c3[nH]c4ncc(C)cc4c23)c1 [PCM-0095437] | – | 93.1% |
| C[C@@H](c1ncncc1F)[C@](O)(Cn1cncn1)c1ccc(F)cc1F [PCM-0214624] | – | 2.3% |
| CNS(=O)(=O)CC1CCC(N(C)c2ncnc3[nH]ccc23)CC1 (stereo not shown) [PCM-0215617] | – | 9.7% |
| CC(C)C1=CC2=CC[C@@H]3[C@](C)(CCC[C@@]3(C)C(=O)O)[C@H]2CC1 [PCM-0215977] | – | -9.3% |
| CC(N)=NCc1cccc(CN)c1 [PCM-0215766] | – | 13.1% |
| Nc1ccc(Cl)cc1C(=O)C(F)(F)F [PCM-0216158] | – | 23.2% |
| CCCCC1C(=O)N(c2ccccc2)N(c2ccccc2)C1=O [PCM-0065475] | – | -17.2% |
| COC(=O)C1=C(C)NC(C)=C(C(=O)OC)C1c1ccccc1[N+](=O)[O-] [PCM-0064767] | – | 14% |
| O=C(Nc1ccc([N+](=O)[O-])cc1)Nc1ccc([N+](=O)[O-])cc1 [PCM-0215156] | – | -14% |
| Cn1cnc2c(F)c(Nc3ccc(Br)cc3Cl)c(C(=O)NOCCO)cc21 [PCM-0094893] | – | -6.9% |
| CN(C)[C@@H](CCOc1cccc2ccccc12)c1ccccc1 [PCM-0095178] | – | 6.2% |
| CC(=O)OCC(=O)[C@@]12N=C(C)O[C@@H]1C[C@H]1[C@@H]3CCC4=CC(=O)C=C[C@]4(C)[C@H]3[C@@H](O)C[C@@]12C [PCM-0086410] | – | -7.6% |
| O=c1cc[nH]c(=S)[nH]1 [PCM-0090803] | – | 8.6% |
| Oc1ccc2c(c1)OCO2 [PCM-0214880] | – | -3.9% |

| SMILES | inhibition at 10 µM (read-out: BTK inhibition (%)) | inhibition at 10 µM [1] |
| --- | --- | --- |
| CCN1C(=O)CNc2ncc(-c3ccc(-c4ncn[nH]4)nc3C)nc21 [PCM-0215743] | – | 11.7% |
| O=S(=O)(O)Oc1ccc(C(c2ccc(OS(=O)(=O)O)cc2)c2ccccn2)cc1 [PCM-0095575] | – | -12.5% |
| CN(C)C(=O)[C@H](O)[C@H](Cc1ccccc1)NC(=O)c1cc2cc(Cl)ccc2[nH]1 [PCM-0065218] | – | 5.4% |
| CN(C)Cc1cccc(N=C(c2ccccc2)c2c(O)[nH]c3cc(C(N)=O)ccc23)c1 [PCM-0095090] | – | 5.5% |
| O=C(NCc1cccc(O)c1)Nc1nc(-c2ccncc2)cs1 [PCM-0095724] | – | -4.8% |
| CC(C)(Oc1ccc(Cl)cc1)C(=O)OCCOC(=O)c1cccnc1 [PCM-0214787] | – | -6.2% |
| CN1CCC(NC(=O)c2cc(-c3c(O)cc(O)cc3Oc3ccc([N+](=O)[O-])cc3)on2)CC1 [PCM-0215304] | – | -10.8% |
| O=c1[nH]c(=O)n([C@H]2C[C@H](O)[C@@H](CO)O2)cc1F [PCM-0086169] | – | -3.9% |
| O=C(CCCCc1ccc2c(c1)OCO2)N1CCCCC1 [PCM-0216131] | – | -17.8% |
| Clc1ccc(C(Cn2ccnc2)OCc2ccc(Sc3ccccc3)cc2)c(Cl)c1 (stereo not shown) [PCM-0095311] | – | 100% |
| CC(C)OC(=O)CCC/C=C\C[C@@H]1[C@@H](CC[C@@H](O)CCc2ccccc2)[C@H](O)C[C@@H]1O [PCM-0215712] | – | -13.1% |
| NN1CC(=O)NC1=O [PCM-0216229] | – | -7.8% |
| O=C(O)C(Cl)Cl [PCM-0215858] | – | -8.5% |
| NC(=O)[C@@H](CCC(F)(F)F)N(Cc1ccc(-c2ncon2)cc1F)S(=O)(=O)c1ccc(Cl)cc1 [PCM-0214565] | – | 9.3% |
| O=C(O)CCc1ccc(O)cc1O [PCM-0214987] | – | -10.9% |
| O=c1c(-c2ccc(O)cc2)coc2c([C@@H]3O[C@H](CO)[C@@H](O)[C@H](O)[C@H]3O)c(O)ccc12 [PCM-0094877] | – | -0.8% |
| CN(C)c1ccc(C(=C2C=CC(=[N+](C)C)C=C2)c2ccc(N(C)C)cc2)cc1 [PCM-0090111] | – | 116% |
| Cc1ccc(C(=O)O)c(O)c1 [PCM-0216186] | – | 10% |
| Cc1cc(-c2ncc(CC(=O)Nc3ccc(-c4cnccn4)cn3)cc2C)ccn1 [PCM-0215274] | – | 1.5% |
| Cc1ccc(Cl)cc1N(CC(=O)Nc1c(F)cccc1F)S(C)(=O)=O [PCM-0215291] | – | 0.8% |
| C/C=C(\C)C(=O)O[C@H]1[C@H](OC(C)=O)[C@@]2(CO)C(CC1(C)C)C1=CCC3[C@@]4(C)CCC(O[C@@H]5O[C@H](C(=O)O)[C@@H](O[C@@H]6O[C@H](CO)[C@@H](O)[C@H](O)[C@H]6O)[C@H](O)[C@H]5O[C@@H]5O[C@H](CO)[C@@H](O)[C@H](O)[C@H]5O)[C@](C)(CO)C4CC[C@@]3(C)[C@]1(C)C[C@H]2O (stereo partly shown) [PCM-0214843] | – | 3.4% |
| Cc1ccc(S(=O)(=O)c2ccc([N+](=O)[O-])o2)cc1 [PCM-0095771] | – | -10.8% |
| COC(=O)CNC(=O)C(=O)OC [PCM-0215303] | – | 3.9% |
| O=S(=O)(c1ccccc1)N(CC(F)(F)F)c1ccc(C(O)(C(F)(F)F)C(F)(F)F)cc1 [PCM-0095817] | – | 27% |
